Laboratory results from patent publication US20240209010A1, “PRODRUGS OF AZO COMPOUNDS AND THEIR SALTS” (KASHIV BIOSCIENCES, LLC, priority 2021, published 2024).

Assays:
[1] = tested on: P2RX3 gene; experiment: Gene expression analysis (qRT-PCR) of P2RX3 in cyclophosphamide-treated RT4 cells; format: cell-based, Human; details: 100 μM CYP + 10 μM compound, 4 h incubation, compared to CYP control
Method: Study Design: With objective of evaluating effect of text compounds on the pain related markers we have utilized human urothelial “RT4 (Human Urinary bladder carcinoma cells)” cells, treated with test compounds in combination with cyclophosphamide (CYP) and performed gene expression analysis of pain related gene. For gene expression study, 0.5×10^6 cells were treated with cyclophosphamide and test compounds. Cells were incubated for 4 h at 37° C. Experimental Groups: Groups 1: Untreated cells, Group 2: CYP treated (100 μM CYP), Group 3: CYP+Compound IX (100 μM CYP+10 μM Compound IX).
At the end of 4 hr incubation, medium was removed from all wells and cells were washed once with sterile PBS. RNA isolation was performed as per the manufacturer's instruction utilizing Qiagen RNA mini kit (Cat #74104). Followed by cDNA synthesis using 3 μg of total RNA each sample utilizing Superscript III First strand cDNA synthesis system (Thermo fisher, Cat No 18080051). qRT-PCR was performed using the SYBR green master mix (PCR Biosystems, Cat No:—PB20.14) and primers specific for P2RX3 gene. Upon the completion of PCR, the data was analysed using the CFX manager software. The Fold change of the expression was calculated using the following formula: 2^−ddCT=2^−((CT target −CT internal control)

[2] = Pharmacokinetic data in rat after single oral administration; format: in vivo; details: analyte = the administered compound itself, single oral dose (No. 12 31.2, No. 43 32.8, No. 446 34.8, No. 449 25, XIII 21.2, No. 54 27 mg/kg), fasted female Sprague Dawley rat
Method: The objective of the study was to evaluate pharmacokinetic exposure of Compound XI along with Compound No. 12/Compound No. 43/Compound No. 446/Compound No. 449/Compound XIII/Compound No. 54 after per oral dosing at 31.2 mg/kg of Compound No. 12, 32.8 mg/kg of Compound No. 43, 34.8 mg/kg of Compound No. 446, 25 mg/kg of Compound No. 449, 21.2 mg/kg of Compound XIII and 27 mg/kg of Compound No. 54 in female Sprague Dawley rat. This study was performed in overnight fasted female Sprague Dawley rat. Dose formulation was prepared freshly on the day of dosing. 0.1% tween-80+99.9% of 0.5% CMC was used as vehicle for the preparation of dose formulation.
Blood samples were collected through retro orbital plexus puncture at pre-dose, 0.25, 0.5, 1, 2, 4, 8, 12 and 24 h post-dose. At each time point, blood was withdrawn and transferred into a pre-labeled of micro centrifuge tubes containing anti-coagulant. Tube was mixed gently by inverting the tube to facilitate mixing of anticoagulant with the blood. All blood/plasma samples were analysed using fit-for purpose LC-MS/MS method.
The pharmacokinetic parameters were calculated using standard non-compartmental analysis (Phoenix® software, version 8.3, Pharsight Corporation, Mountain View, California 94040/USA) using linear trapezoidal method with linear interpolation.

Row | SMILES | P2RX3 gene expression (fold change) [1] | AUC% Extrap—obs [2] [%] | AUC(0-t) ([2]; in vivo) [ng·h/mL] | Tmax ([2]; in vivo) [min] | Cmax ([2]; in vivo, arithmetic mean) [ng/mL] | AUC(0-inf) ([2]; in vivo, read-out: AUCinf—obs) [ng·h/mL]
1 | Nc1nc(N)c(/N=N/c2ccccc2)cc1O [Compound IX] | reduction in P2RX3 gene expression |  |  |  |  | 
2 | NCC(=O)Nc1ccc(/N=N/c2ccccc2OC(=O)N2CCOCC2)c(N)n1 [Compound No. 446] |  | 11.73 | 151 | 15 | 145 | 170
